Experimental data reported in patent publication US20100255994A1, “HERBICIDAL MIXTURE” (E.I. DU PONT DE NEMOURS AND COMPANY, priority 2007, published 2010).

Test system: Digitaria nuda
Test: Test A: postemergence greenhouse weed control, visual rating
Format: in vivo
Details: 7 DAT
Description: Plastic pots (10-cm square) were filled to the rim with a sandy loam soil having pH of 6.1, 1.4% organic matter and a cation exchange capacity (CEC) of 5.7 milliequivalents per 100 grams (meq/100 g). The soil was tamped firm to a uniform level of 2.5 cm below the rim of each pot. A measured amount of seeds of Digitaria nuda were scattered on the soil surface. Seeded pots were covered with approximately 50 mL of the same planting soil and tamped. The pots were then placed in a greenhouse and watered thoroughly 2-3 times daily as needed. A balanced fertilizer solution was injected into the watering system to provide 218 ppm of nitrogen. Artificial lighting was used to supplement natural light to produce a 14 h photoperiod. Greenhouse temperatures were targeted for 28.8° C. in the day and 19.8° C. at night.
When the D. nuda plants reached the 3-4-leaf growth stage (8-12 cm height), the pots were sorted into test units for herbicide application. Treatments were replicated three times. The herbicides were diluted in a measured amount of water and then mixed using a magnetic stir bar for 10 minutes before aliquots were taken to make individual treatment solutions. Diuron was in the form of the DuPont product KARMEX, which is a wettable granule formulation containing 80 weight % active ingredient. Hexazinone was in the form of the DuPont product VELPAR DF, which is a wettable granule formulation containing 75 weight % active ingredient. A mixture of hexazinone and diuron in 11:39 weight ratio was in the form of the DuPont product VELPAR-K (VELPAR-K4) 60 WG, which is a wettable granule formulation containing 13.2 weight % hexazinone and 46.8 weight % diuron active ingredients. A mixture of hexazinone and diuron in 1:8 weight ratio was in the form of the DuPont product VELPAR-K8 (marketed in Brazil as ADVANCE Herbicide), which is a wettable granule formulation containing 6.7 weight % hexazinone and 53.3 weight % diuron active ingredients. Topramezone was in the form of the AMVAC product IMPACT, which is a suspension concentrate formulation containing 29.7% active ingredient. These products were applied alone and in combinations. Application rates of diuron and hexazinone were […] and 210 g ai ha^−1, respectively. The application rates of the VELPAR-K4 mixture of hexazinone and diuron (132 g a.i. hexazinone+468 g a.i. diuron/kg of formulated product) and VELPAR-K8 mixture of hexazinone and diuron (67 g a.i. hexazinone+533 g a.i. diuron kg of formulated product) were 1200 and 1800 g total a.i. ha^−1, respectively. Application rates of topramezone were 6, 12, 18 and 24 g a.i./ha. (“a.i.” means active ingredient.) The pots were then sprayed through a T-Jet 8002E nozzle using a stationary belt sprayer calibrated to deliver 281 L/ha at 276 kPa. Treatments were replicated three times.
The plants were returned to the greenhouse, and then control was visually evaluated relative to the control plants at 7 days after treatment (DAT). A numerical percent rating system was used to describe the response observed from each treatment on a scale of 0 to 100%, in which 0% indicates no response and 100% indicates plant death or near death. The reported results are the mean averages of the three replicates.
Colby's Equation was used to determine the herbicidal effects expected from the mixtures. Colby's Equation (Colby, S. R. “Calculating Synergistic and Antagonistic Responses of Herbicide Combinations,” Weeds, 15(1), pp 20-22 (1967)) calculates the expected additive effect of herbicidal mixtures, and for two active ingredients, or a pair of active ingredients (e.g., diuron+hexazinone) combined with an additional active ingredient (e.g., topramezone), is of the form: […]

For `Cc1c(C(=O)c2cnn(C)c2O)ccc(S(C)(=O)=O)c1C1=NOCC1` [Topramezone], the “% Control Observed” value (topramezone 6 g a.i./ha, 3-4-leaf stage, mean of 3 replicates) was 27%, the “% Control Observed” value (topramezone 12 g a.i./ha) was 28% and the “% Control Observed” value (topramezone 18 g a.i./ha) was 33%. The “% Control Observed” value (topramezone 24 g a.i./ha) was 40%.

With `CN(C)c1nc(=O)n(C2CCCCC2)c(=O)n1C` [Hexazinone] the “% Control Observed” value (hexazinone 210 g a.i./ha) was 12%.

`CN(C)C(=O)Nc1ccc(Cl)c(Cl)c1` [Diuron, N′-(3,4-dichlorophenyl)-N,N-dimethylurea] was tested, and the “% Control Observed” value (diuron 1800 g a.i./ha) was 20%.
